Test results taken from article PMC5146859, “Phase 1/2 study of pacritinib, a next generation JAK2/FLT3 inhibitor, in myelofibrosis or other myeloid malignancies” (Journal of Hematology & Oncology, 2016).

Test system: patients with advanced myeloid malignancies
Experiment: Phase 1 dose escalation: dose-limiting toxicities and MTD
Format: in vivo
Protocol: Phase 1 was a 3 + 3 dose-escalation study. Three to six patients were enrolled at each dose level, depending upon observed dose-limiting toxicities (DLTs) in the cohort. Each patient participated in only one cohort. Oral pacritinib was administered to the first cohort at 100 mg once daily (QD) for 25 consecutive days in a 28-day cycle in cycle 1, with 3 days of rest for pharmacokinetic (PK) sampling, followed by continuous 28-day dosing for the remaining cycles. Subsequent cohorts received escalating pacritinib dose levels of 150, 200, 300, 400, 500, and 600 mg QD. All patients at each dose level were observed through the end of the first cycle before the next dose level could begin treatment. […]
The primary objective of phase 1 was to establish the MTD of pacritinib in patients with advanced myeloid malignancies, defined as the highest dose level at which no more than one out of six patients in the cohort experienced a DLT during cycle 1 (25 days) of therapy. […] Clinical benefit rate was assessed as an exploratory endpoint, defined as the proportion of patients who experienced a complete response, partial response, clinical improvement, or stable disease (SD) during the study.

C1=C/COCc2cc(ccc2OCCN2CCCC2)Nc2nccc(n2)-c2cccc(c2)COC/1 [pacritinib, 11-(2-pyrrolidin-1-yl-ethoxy)-14,19-dioxa-5,7,26-triaza-tetracyclo[19.3.1.1(2,6). 1(8,12)]heptacosa-1(25),2(26),3,5,8,10,12(27),16,21,23-decaene]
Recommended phase 2 dose (human, in vivo): 400 mg QD | Maximum tolerated dose (MTD) (phase 1, oral): 500 mg QD
